Columns and labels:
[1] = biological target: Ribosomal protein S6 kinase alpha-3 (Homo sapiens) (UniProt P51812); test: Inhibition of RSK2 Kin.Dom1.1-N-terminal (unknown origin) assessed as remaining activity at 10 uM by high-throughput assay relative to control
[2] = biological target: Dual specificity mitogen-activated protein kinase kinase 1 (Homo sapiens) (UniProt Q02750); test: Inhibition of MEK1 (unknown origin) assessed as remaining activity at 10 uM by high-throughput assay relative to control
[3] = biological target: Serine/threonine-protein kinase B-raf (Homo sapiens) (UniProt P15056); test: Inhibition of BRAF (unknown origin) assessed as remaining activity at 10 uM by high-throughput assay relative to control
[4] = biological target: Macrophage colony-stimulating factor 1 receptor (Homo sapiens) (UniProt P07333); test: Inhibition of CSF1R (unknown origin) assessed as remaining activity at 10 uM by high-throughput assay relative to control
[5] = biological target: Mitogen-activated protein kinase 8 (Homo sapiens) (UniProt P45983); test: Inhibition of JNK1 (unknown origin) assessed as remaining activity at 10 uM by high-throughput assay relative to control
[6] = biological target: Serine/threonine-protein kinase Chk1 (Homo sapiens) (UniProt O14757); test: Inhibition of CHEK1 (unknown origin) assessed as remaining activity at 10 uM by high-throughput assay relative to control
[7] = biological target: Aurora kinase B (Homo sapiens) (UniProt Q96GD4); test: Inhibition of AURKB (unknown origin) assessed as remaining activity at 10 uM by high-throughput assay relative to control
[8] = biological target: Bone morphogenetic protein receptor type-2 (Homo sapiens) (UniProt Q13873); test: Inhibition of BMPR2 (unknown origin) assessed as remaining activity at 10 uM by high-throughput assay relative to control
[9] = test system: Mast/stem cell growth factor receptor Kit (Homo sapiens), P10721 [V559D,T670I]; test: Inhibition of KIT V559D/T670I double mutant (unknown origin) assessed as remaining activity at 10 uM by high-throughput assay relative to control
[10] = test system: Epidermal growth factor receptor (Homo sapiens), P00533 [L858R]; test: Inhibition of EGFR L858R mutant (unknown origin) assessed as remaining activity at 10 uM by high-throughput assay relative to control; format: protein assay
[11] = biological target: Serine/threonine-protein kinase pim-2 (Homo sapiens) (UniProt Q9P1W9); test: Inhibition of PIM2 (unknown origin) assessed as remaining activity at 10 uM by high-throughput assay relative to control
[12] = biological target: Inhibitor of nuclear factor kappa-B kinase subunit alpha (Homo sapiens) (UniProt O15111); test: Inhibition of IKK-alpha (unknown origin) assessed as remaining activity at 10 uM by high-throughput assay relative to control
[13] = biological target: Serine/threonine-protein kinase pim-1 (Homo sapiens) (UniProt P11309); test: Inhibition of PIM1 (unknown origin) assessed as remaining activity at 10 uM by high-throughput assay relative to control
[14] = biological target: Ephrin type-A receptor 2 (Homo sapiens) (UniProt P29317); test: Inhibition of EPHA2 (unknown origin) assessed as remaining activity at 10 uM by high-throughput assay relative to control
[15] = biological target: MAP/microtubule affinity-regulating kinase 3 (Homo sapiens) (UniProt P27448); test: Inhibition of MARK3 (unknown origin) assessed as remaining activity at 10 uM by high-throughput assay relative to control
[16] = biological target: Inhibitor of nuclear factor kappa-B kinase subunit beta (Homo sapiens) (UniProt O14920); test: Inhibition of IKK-beta (unknown origin) assessed as remaining activity at 10 uM by high-throughput assay relative to control
[17] = biological target: Serine/threonine-protein kinase 32C (Homo sapiens) (UniProt Q86UX6); test: Inhibition of YANK3 (unknown origin) assessed as remaining activity at 10 uM by high-throughput assay relative to control
[18] = test system: Mast/stem cell growth factor receptor Kit (Homo sapiens), P10721 [D816V]; test: Inhibition of KIT D816V mutant (unknown origin) assessed as remaining activity at 10 uM by high-throughput assay relative to control
[19] = biological target: Dual specificity tyrosine-phosphorylation-regulated kinase 1B (Homo sapiens) (UniProt Q9Y463); test: Inhibition of DYRK1B (unknown origin) assessed as remaining activity at 10 uM by high-throughput assay relative to control
[20] = biological target: Receptor tyrosine-protein kinase erbB-4 (Homo sapiens) (UniProt Q15303); test: Inhibition of ERBB4 (unknown origin) assessed as remaining activity at 10 uM by high-throughput assay relative to control
[21] = biological target: Cyclin-dependent kinase 11B (Homo sapiens) (UniProt P21127); test: Inhibition of CDK11 (unknown origin) assessed as remaining activity at 10 uM by high-throughput assay relative to control
[22] = biological target: Receptor tyrosine-protein kinase erbB-2 (Homo sapiens) (UniProt P04626); test: Inhibition of ERBB2 (unknown origin) assessed as remaining activity at 10 uM by high-throughput assay relative to control
[23] = biological target: Tyrosine-protein kinase ABL1 (Homo sapiens) (UniProt P00519); test: Inhibition of ABL1 (unknown origin) assessed as remaining activity at 10 uM by high-throughput assay relative to control
[24] = biological target: Mast/stem cell growth factor receptor Kit (Homo sapiens) (UniProt P10721); test: Inhibition of KIT (unknown origin) assessed as remaining activity at 10 uM by high-throughput assay relative to control

Chain of Dual specificity tyrosine-phosphorylation-regulated kinase 1B (Homo sapiens) (Q9Y463 whole entry, looked up): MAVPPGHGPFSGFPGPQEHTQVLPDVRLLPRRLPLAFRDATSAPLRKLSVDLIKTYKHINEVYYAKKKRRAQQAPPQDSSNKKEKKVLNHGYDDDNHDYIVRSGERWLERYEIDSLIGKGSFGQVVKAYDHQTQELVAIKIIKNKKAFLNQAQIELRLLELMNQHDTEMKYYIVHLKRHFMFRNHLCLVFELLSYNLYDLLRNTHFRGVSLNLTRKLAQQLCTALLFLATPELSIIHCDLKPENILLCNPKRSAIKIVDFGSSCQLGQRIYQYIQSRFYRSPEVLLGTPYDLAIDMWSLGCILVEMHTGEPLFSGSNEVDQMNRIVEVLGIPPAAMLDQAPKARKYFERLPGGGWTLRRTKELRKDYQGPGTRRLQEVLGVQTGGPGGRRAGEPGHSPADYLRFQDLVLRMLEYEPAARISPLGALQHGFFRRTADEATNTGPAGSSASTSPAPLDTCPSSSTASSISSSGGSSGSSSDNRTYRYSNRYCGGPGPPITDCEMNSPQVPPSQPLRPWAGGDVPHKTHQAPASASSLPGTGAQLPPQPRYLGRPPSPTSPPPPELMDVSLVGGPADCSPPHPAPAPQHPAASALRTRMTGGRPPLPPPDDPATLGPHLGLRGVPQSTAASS
Chain of Receptor tyrosine-protein kinase erbB-2 (Homo sapiens) (P04626 whole entry): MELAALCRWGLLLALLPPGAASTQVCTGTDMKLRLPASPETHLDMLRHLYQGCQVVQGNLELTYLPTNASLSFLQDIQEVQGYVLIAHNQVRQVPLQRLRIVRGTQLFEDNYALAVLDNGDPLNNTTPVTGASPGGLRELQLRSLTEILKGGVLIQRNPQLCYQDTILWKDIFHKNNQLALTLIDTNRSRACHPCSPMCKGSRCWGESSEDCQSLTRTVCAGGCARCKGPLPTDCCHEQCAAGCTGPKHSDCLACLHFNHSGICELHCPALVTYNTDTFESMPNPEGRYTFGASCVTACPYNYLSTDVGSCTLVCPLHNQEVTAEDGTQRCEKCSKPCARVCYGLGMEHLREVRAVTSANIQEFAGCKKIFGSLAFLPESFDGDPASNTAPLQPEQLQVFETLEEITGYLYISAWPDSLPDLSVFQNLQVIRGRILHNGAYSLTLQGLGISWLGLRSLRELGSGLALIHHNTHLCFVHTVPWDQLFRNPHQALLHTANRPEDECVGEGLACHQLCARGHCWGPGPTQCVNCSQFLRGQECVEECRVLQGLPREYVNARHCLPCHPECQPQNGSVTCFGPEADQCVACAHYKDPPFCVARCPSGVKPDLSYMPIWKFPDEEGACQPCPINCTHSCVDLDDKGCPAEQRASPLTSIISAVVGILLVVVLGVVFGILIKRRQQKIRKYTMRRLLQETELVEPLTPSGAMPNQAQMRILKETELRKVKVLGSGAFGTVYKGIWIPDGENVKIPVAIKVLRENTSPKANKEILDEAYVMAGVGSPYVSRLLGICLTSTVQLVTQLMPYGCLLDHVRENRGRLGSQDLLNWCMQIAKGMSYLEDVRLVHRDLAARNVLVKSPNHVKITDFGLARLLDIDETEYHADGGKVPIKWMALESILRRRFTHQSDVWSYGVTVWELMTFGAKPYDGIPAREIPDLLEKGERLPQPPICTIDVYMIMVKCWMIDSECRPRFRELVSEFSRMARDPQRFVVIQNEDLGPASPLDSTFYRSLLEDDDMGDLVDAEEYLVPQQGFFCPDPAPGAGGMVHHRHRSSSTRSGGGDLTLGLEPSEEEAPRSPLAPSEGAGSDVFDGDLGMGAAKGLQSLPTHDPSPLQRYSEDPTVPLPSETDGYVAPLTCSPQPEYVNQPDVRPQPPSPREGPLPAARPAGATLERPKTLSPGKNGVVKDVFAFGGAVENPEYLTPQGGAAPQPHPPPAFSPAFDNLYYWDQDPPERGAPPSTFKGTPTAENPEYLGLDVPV
Chain of Ephrin type-A receptor 2 (Homo sapiens) (P29317 whole entry): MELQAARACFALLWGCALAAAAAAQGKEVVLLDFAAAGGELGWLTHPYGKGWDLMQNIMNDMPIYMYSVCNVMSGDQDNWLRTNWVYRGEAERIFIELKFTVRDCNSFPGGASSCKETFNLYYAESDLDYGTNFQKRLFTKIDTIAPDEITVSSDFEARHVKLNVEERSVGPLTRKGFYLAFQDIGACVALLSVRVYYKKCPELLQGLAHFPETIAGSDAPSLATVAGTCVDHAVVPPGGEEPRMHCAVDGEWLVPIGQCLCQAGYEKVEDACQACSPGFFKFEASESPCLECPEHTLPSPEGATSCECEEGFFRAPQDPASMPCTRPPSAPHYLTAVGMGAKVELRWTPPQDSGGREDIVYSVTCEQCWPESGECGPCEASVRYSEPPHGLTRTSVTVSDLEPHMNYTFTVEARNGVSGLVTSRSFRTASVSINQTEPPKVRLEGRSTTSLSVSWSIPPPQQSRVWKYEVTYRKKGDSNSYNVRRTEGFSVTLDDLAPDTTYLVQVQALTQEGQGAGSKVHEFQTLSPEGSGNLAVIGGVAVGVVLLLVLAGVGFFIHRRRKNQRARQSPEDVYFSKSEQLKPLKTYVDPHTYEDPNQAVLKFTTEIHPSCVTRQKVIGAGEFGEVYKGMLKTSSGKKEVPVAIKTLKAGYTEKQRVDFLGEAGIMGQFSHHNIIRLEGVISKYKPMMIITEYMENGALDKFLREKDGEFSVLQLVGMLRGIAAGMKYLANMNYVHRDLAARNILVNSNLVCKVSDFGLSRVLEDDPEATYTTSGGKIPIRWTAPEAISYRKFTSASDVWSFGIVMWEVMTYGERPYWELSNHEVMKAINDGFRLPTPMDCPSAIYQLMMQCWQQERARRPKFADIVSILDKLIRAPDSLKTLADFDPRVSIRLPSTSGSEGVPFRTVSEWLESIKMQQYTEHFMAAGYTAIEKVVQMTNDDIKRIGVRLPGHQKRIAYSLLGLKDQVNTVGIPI
Chain of Serine/threonine-protein kinase 32C (Homo sapiens) (Q86UX6 whole entry): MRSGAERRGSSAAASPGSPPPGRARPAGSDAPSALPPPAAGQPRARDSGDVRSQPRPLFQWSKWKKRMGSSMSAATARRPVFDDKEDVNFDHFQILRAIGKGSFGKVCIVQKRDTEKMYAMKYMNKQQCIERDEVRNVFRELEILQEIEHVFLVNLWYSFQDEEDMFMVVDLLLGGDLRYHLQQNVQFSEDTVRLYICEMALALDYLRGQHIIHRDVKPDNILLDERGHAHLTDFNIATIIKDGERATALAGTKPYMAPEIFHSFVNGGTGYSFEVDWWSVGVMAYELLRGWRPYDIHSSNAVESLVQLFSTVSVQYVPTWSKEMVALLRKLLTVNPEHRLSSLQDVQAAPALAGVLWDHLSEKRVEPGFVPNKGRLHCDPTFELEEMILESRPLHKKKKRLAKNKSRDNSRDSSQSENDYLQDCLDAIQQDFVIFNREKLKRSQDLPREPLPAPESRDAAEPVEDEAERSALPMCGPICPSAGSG
Chain of Serine/threonine-protein kinase pim-2 (Homo sapiens) (Q9P1W9 whole entry, looked up): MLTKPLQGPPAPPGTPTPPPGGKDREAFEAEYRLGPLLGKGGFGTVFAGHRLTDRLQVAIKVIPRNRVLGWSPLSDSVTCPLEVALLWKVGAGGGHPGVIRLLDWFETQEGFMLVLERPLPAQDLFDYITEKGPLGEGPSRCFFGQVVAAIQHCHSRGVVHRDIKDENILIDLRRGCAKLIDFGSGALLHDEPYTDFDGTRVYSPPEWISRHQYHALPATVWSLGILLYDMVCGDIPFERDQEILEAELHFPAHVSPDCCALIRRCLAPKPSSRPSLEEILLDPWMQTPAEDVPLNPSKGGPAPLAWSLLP
Chain of Mast/stem cell growth factor receptor Kit (Homo sapiens), P10721 [D816V] (P10721 whole entry D816V): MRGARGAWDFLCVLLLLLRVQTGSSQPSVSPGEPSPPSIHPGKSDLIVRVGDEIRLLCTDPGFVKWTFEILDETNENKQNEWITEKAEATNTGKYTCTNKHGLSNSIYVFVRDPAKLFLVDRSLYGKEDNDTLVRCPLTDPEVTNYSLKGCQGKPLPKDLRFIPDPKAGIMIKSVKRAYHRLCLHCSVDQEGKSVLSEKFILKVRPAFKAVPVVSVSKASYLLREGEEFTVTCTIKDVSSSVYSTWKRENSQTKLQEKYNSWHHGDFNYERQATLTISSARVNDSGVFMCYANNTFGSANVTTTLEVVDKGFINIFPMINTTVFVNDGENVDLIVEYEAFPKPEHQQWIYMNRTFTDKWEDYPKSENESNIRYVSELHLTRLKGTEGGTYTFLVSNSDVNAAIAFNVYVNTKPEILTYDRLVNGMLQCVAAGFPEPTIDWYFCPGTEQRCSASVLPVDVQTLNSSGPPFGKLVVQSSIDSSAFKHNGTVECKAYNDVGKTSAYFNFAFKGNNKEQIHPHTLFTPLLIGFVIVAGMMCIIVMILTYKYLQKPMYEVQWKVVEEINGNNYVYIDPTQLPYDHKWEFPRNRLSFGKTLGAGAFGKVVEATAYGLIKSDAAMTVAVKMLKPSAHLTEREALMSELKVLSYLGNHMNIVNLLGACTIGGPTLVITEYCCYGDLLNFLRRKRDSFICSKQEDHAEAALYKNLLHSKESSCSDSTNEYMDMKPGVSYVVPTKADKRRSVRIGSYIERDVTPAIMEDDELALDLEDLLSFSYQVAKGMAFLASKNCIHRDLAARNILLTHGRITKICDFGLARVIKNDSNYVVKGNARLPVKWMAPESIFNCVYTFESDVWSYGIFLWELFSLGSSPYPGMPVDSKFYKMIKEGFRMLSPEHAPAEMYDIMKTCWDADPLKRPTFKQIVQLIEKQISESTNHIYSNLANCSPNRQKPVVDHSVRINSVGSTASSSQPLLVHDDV
Chain of Mitogen-activated protein kinase 8 (Homo sapiens) (P45983 whole entry): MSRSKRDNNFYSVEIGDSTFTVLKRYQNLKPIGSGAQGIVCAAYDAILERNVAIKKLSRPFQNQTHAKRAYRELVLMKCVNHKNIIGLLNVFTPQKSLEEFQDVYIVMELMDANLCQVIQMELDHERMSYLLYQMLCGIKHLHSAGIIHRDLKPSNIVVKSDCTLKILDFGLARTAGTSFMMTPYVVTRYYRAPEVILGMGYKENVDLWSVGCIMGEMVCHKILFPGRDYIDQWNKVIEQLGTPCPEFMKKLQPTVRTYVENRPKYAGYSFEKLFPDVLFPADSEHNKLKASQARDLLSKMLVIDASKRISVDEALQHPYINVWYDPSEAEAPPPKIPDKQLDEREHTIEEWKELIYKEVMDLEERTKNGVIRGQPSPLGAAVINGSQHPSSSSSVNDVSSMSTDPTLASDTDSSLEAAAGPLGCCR

Activity [1]: 77%
Activity [2]: 85%
Activity [3]: 66%
Activity [4]: 77%
Activity [5]: 34%
Activity [6]: 90%
Activity [7]: 66%
Activity [8]: 53%
Activity [9]: 65%
Activity [10]: 90%
Activity [11]: 82%
Activity [12]: 65%
Activity [13]: 93%
Activity [14]: 80%
Activity [15]: 90%
Activity [16]: 73%
Activity [17]: 78%
Activity [18]: 58%
Activity [19]: 52%
Activity [20]: 100%
Activity [21]: 66%
Activity [22]: 92%
Activity [23]: 95%
Activity [24]: 38%
Compound: O=C1c2ccccc2-c2c1oc1ccccc1c2=O

Source: ChEMBL document CHEMBL3627674, “Discovery of wrightiadione as a novel template for the TrkA kinase inhibitors” (Bioorg Med Chem Lett, 2015)
